Measurements as given in PMC7560342, “In Vitro and In Vivo Evaluation of the Toxic Effects of Dodecylguanidine Hydrochloride” (Toxics, 2020).
“Also recorded” adds a separate entry of the source.

Experiments:
A549 cells [1] = test: Cell membrane damage (LDH leakage) assay; assay type: cell-based, Human; conditions: 1–5000 μg/mL, 24 h
Description: (§1) Human adenocarcinomic alveolar epithelial (A549) cells were obtained from the Korea Cell Line Bank (Seoul, Korea). Cells were grown in RPMI 1640 medium (Thermo Fisher Scientific, Waltham, MA, USA), containing 10% heat-inactivated fetal bovine serum (Thermo Fisher Scientific, Waltham, MA, USA) and 1% penicillin-streptomycin (Thermo Fisher Scientific, Waltham, MA, USA) under standard cell culture conditions (37 °C, 5% CO2, and 90% humidity).
(§2) A549 cells (1 × 10^4 cells) were incubated in 96-well plates overnight, and various concentrations (1, 10, 100, 1000, and 5000 μg/mL) of the eight selected chemicals were added to the cell culture medium. After 24 h of incubation, cell morphology was observed by optical microscopy, and cell viability was evaluated using EZ-Cytox kit (DoGenBio, Seoul, Korea) by quantifying purple formazan crystals. The membrane integrity was examined using an EZ-lactate dehydrogenase (LDH) kit (DoGenBio, Seoul, Korea) to measure the LDH level released from the cytosol into the culture medium. Absorbance was measured using a microplate reader (Tecan, Salzburg, Austria) at a wavelength of 450 nm.

A549 cells [2] = test: cells; assay type: cell-based, Human; conditions: 24 h exposure, WST assay
Description: as §1, §2

Sprague-Dawley rats = test: Acute inhalation study (4 h aerosol exposure); assay type: in vivo, rat
Description: Specific-pathogen-free (SPF) male and female Sprague-Dawley (six-week-old) rats were purchased from Orient Bio Inc. (Sungnam, Korea). The temperature and relative humidity of the animal maintenance room was set to 22 ± 3 °C and 30 to 70%, respectively, with a 12:12 h light/dark cycle. Diet (LabDiet 5053, Orient Bio Inc., Sungnam, Korea) and water were supplied ad libitum. Following an acclimatization period of one week, the rats were randomly divided into four groups (five males and five females per group) for the acute inhalation study. All animal experiments were approved by the Animal Care and Use Committee of the National Institute of Environmental Research, Republic of Korea (identification code: NIER-2019-01-01-011; date of approval: 15 May 2019). The left lung of the rats was used for histopathological analysis and the right lung was used for bronchoalveolar lavage fluid (BALF) analysis, including lung cell damage and pulmonary inflammation.
The inhalation aerosols of the DGH solutions were generated using an atomizer with a clean air flow of 250 L/min. […] In the acute toxicity test, all the rats in each group were sacrificed immediately after exposure. Temperature, humidity, air flow, and air pressure were monitored during the exposure using a Model VT3-X15 environmental controller (Sibata, Saitama, Japan). The concentration of DGH was analyzed by sampling the chamber air using a SIP-32L (Sibata, Saitama, Japan) and measuring the weight of the membranes (T60A20, Φ55). The mass median aerodynamic diameter (MMAD) and geometric standard deviation (GSD) of DGH in the exposure chamber were measured using an Andersen cascade impactor (AN-200, Sibata, Saitama, Japan).
Hematology and serum biochemistry of ten rats in each group were analyzed, as described in previous studies. Briefly, blood samples of the animals were drawn from the ventral aorta using a syringe, under anesthesia. The blood samples were collected into CBC bottles containing ethylenediaminetetraacetic acid (EDTA) (K2 EDTA, BD vacutainer) and analyzed within 15 min, using an automatic hematology LC-662G, Kyoto, Japan. The following parameters were determined: white blood cell count, red blood cell count, hemoglobin, hematocrit, mean corpuscular volume, mean corpuscular hemoglobin, mean corpuscular hemoglobin concentration, red blood cell volume distribution width, platelets, mean platelet volume, […], and platelet distribution width. Blood samples were drawn from the ventral aorta using a syringe and collected in a serum vacutainer. The sera were collected by centrifugation at 2000 rpm for 10 min within 2 h after collection and stored at −80 °C in a freezer, prior to analysis. The following serum biochemistry parameters were determined using an automatic serum analyzer (Drichem4000, Fuji Photo Film, Tokyo, Japan): alkaline phosphatase, lactate dehydrogenase (LDH), glucose, total cholesterol, glutamic oxaloacetate transaminase, glutamic pyruvate transaminase, urea nitrogen in blood, calcium, inorganic phosphorus, gamma glutamyl transferase, albumin, total protein, creatinine, total bilirubin, sodium, potassium, and chlorine.

SMILES: CCCCCCCCCCCCN=C(N)N.Cl [DGH, Dodecylguanidine hydrochloride]
- Cell membrane damage (LDH leakage) (A549 cells [1]): significant dose-dependent damage to the cell membrane
- IC50 (half inhibitory concentration by cell viability assay) (A549 cells [2]): 0.39 µg/mL
- Spleen weight (Sprague-Dawley rats; male rats, exposed groups, 4 h): significantly decreased; also recorded: decreased significantly
- Body weight vs control (Sprague-Dawley rats; rats, 8.6–68 mg/m^3, 4 h): no significant changes
- Deaths (Sprague-Dawley rats; rats, 8.6–68 mg/m^3, 4 h): no deaths occurred; also recorded: no death
- Hematology vs control (Sprague-Dawley rats; rats, 8.6–68 mg/m^3, 4 h): no significant changes
- Serum biochemistry vs control (Sprague-Dawley rats; rats, 8.6–68 mg/m^3, 4 h): no significant changes
- LC50 (inhalation) (Sprague-Dawley rats; rats, exposure for 4 h, estimated): > 68 mg/m^3
